Laboratory results: ChEMBL document CHEMBL1201862, “PubChem BioAssay data set” (2004)
The source made the active and inactive calls.

Tests used:
[1] = target: Ephrin type-A receptor 4 (Mus musculus, UniProt Q03137); experiment: inhibitors of EphA4 binding to KYL peptide, primary screen, biochemical, colorimetric, mouse EphA4 (AID 689); type: functional
[2] = target: Cytochrome P450 2C9 (Homo sapiens, UniProt P11712)
[3] = HIV-1 Env-mediated cell fusion inhibitors, dose response, CCR5-tropic Env (AID 2279); type: functional
[4] = Luminescence Cell-Based Dose Retest to Confirm Inhibitors of Cancer Stem Cells. [Related pubchem assays (depositor defined):AID2717, AID2721]; type: functional; conditions: Homo sapiens
[5] = cells
[6] = Luminescence Cell-Based Dose Response HTS to Identify Activators of Luciferase Translation or Activity in H4 […] Cells. [Related pubchem assays: 1829 (Project Summary), 1814 (Primary HTS)]; type: functional
[7] = test system: H4; experiment: Luminescence Cell-Based Dose Response HTS to Identify Activators of 5'UTR Stem-Loop Driven Prion Protein mRNA Translation in H4 Neuroglioblastoma Cells. [Related pubchem assays: 1829 (Project Summary), 1814 (Primary HTS)]; type: functional; conditions: Homo sapiens
[8] = Luminescence Cell-Based Dose Response to Identify Activators of Luciferase Translation or Activity in H4-C Neuroglioblastoma Cells. [Related pubchem assays: 1829 (Project Summary), 1814 (Primary HTS)]; type: functional
[9] = target: T1, Oxysterols receptor LXR-beta (Homo sapiens, UniProt P55055); type: functional, cell-based;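 note: Cell-based luminescence dose-response assay of agonist activity at LXR, run as a confirmatory counterscreen to a daf-12 agonist screen; HEK293 cells with Gal4-LXR fusion and GAL4-driven luciferase reporter; agonist potency from rising luciferase signal of a Gal4-LXR reporter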
T1 sequence (P55055 whole entry): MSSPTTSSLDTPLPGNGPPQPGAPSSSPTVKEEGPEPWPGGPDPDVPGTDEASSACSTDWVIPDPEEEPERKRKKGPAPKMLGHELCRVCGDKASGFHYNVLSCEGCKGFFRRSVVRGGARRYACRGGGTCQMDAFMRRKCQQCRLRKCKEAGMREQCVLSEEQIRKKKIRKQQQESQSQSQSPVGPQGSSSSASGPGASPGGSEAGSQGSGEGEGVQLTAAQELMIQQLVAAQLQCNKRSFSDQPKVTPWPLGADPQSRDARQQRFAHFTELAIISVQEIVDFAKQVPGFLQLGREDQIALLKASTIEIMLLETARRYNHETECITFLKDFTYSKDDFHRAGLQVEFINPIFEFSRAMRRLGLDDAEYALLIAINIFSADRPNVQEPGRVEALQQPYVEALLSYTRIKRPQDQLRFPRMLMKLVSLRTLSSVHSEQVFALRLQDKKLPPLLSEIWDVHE

[10] = Luminescence Cell-Based Dose Confirmation to Identify Activators of 5'UTR Stem-Loop Driven Alpha-Synuclein mRNA Translation in H4 Neuroglioblastoma Cells. [Related pubchem assays: 1829 (Project Summary), 1814 (Primary HTS)]; type: functional
[11] = Luminescence Cell-Based Dose Confirmation HTS to Identify Activators of 5'UTR Stem-Loop Driven Alpha-Synuclein mRNA Translation in H4 Neuroglioblastoma Cells. [Related pubchem assays: 1829 (Project Summary), 1814 (Primary HTS)]; type: functional
[12] = Luminescence Cell-Based Dose Response to Identify Activators of 5'UTR Stem-Loop Driven Prion Protein mRNA Translation in H4-C Neuroglioblastoma Cells. [Related pubchem assays: 1829 (Project Summary), 1814 (Primary HTS)]; type: functional
[13] = target: T2, Carboxy-terminal domain RNA polymerase II polypeptide A small phosphatase 1 (Homo sapiens, UniProt Q9GZU7); experiment: inhibitors of CTDSP1, concentration-response testing, biochemical assay, absorbance-based, actives from ultra-high-throughput screening (AID 540297); type: functional
T2 sequence (Q9GZU7 whole entry): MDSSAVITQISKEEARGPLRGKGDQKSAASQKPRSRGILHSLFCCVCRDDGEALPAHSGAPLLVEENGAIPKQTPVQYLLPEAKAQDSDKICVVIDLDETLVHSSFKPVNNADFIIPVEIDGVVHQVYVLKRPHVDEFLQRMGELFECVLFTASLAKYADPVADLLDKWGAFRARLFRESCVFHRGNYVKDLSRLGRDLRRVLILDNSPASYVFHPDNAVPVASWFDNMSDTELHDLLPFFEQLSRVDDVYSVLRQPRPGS

[14] = target: Long-chain-fatty-acid--AMP ligase FadD28 (Mycobacterium tuberculosis, UniProt P9WQ59); experiment: Fluorescence polarization aasay to screen for inhibitors that compete for the binding of FadD28 to a bisubstrate Measured in Biochemical System Using Plate Reader - 2147-01_Inhibitor_Dose_CherryPick_Activity.; type: functional, Mycobacterium tuberculosis H37Rv
Chain of Long-chain-fatty-acid--AMP ligase FadD28 (P9WQ59 whole entry): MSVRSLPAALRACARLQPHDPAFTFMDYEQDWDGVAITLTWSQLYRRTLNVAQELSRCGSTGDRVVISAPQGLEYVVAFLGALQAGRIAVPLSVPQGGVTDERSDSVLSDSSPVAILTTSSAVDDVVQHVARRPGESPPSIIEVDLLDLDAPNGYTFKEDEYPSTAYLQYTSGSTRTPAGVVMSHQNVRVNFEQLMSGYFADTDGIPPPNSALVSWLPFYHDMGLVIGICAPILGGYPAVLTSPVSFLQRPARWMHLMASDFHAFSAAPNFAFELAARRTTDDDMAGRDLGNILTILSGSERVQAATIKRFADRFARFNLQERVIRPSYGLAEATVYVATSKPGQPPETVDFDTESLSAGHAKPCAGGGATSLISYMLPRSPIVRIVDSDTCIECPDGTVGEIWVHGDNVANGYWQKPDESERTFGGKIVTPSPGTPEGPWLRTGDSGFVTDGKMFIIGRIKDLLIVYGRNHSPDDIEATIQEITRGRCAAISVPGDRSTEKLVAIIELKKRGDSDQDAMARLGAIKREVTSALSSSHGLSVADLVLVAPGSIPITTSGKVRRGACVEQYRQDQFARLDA

[15] = C. albicans growth with fluconazole, confirmation, fluorescence, retest (AID 2467); type: functional, cell-based
[16] = target: Large T antigen (Simian virus 40, UniProt P03070); type: functional, Betapolyomavirus macacae;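 note: Confirmatory-stage PubChem screen for compounds that inhibit SV40 T antigen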
Chain of Large T antigen (P03070 whole entry): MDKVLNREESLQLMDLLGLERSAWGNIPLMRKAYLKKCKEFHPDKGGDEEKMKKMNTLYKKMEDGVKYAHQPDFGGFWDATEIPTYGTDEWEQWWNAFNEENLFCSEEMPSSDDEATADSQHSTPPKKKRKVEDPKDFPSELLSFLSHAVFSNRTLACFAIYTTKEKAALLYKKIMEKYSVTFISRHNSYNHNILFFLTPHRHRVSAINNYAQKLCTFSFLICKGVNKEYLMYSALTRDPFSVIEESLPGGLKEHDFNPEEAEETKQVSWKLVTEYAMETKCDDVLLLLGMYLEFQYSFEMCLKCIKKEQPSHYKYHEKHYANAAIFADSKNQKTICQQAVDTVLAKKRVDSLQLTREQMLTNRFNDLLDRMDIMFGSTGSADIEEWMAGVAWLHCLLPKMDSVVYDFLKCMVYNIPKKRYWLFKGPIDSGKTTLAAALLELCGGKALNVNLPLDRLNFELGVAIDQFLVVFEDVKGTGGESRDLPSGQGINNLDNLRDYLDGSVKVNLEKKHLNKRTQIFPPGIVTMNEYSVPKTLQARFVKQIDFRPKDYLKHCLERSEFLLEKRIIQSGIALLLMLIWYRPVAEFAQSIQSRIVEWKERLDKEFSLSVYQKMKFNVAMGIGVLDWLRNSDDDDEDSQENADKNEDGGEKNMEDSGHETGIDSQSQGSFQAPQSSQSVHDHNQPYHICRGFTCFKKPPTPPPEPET

[17] = target: Bifunctional protein GlmU (Mycobacterium tuberculosis, UniProt P9WMN3); experiment: Inhibitors of Mycobacterial Glucosamine-1-phosphate acetyl transferase (GlmU). Secondary screen.; design: species or system Mycobacterium tuberculosis H37Rv
Chain of Bifunctional protein GlmU (P9WMN3 whole entry): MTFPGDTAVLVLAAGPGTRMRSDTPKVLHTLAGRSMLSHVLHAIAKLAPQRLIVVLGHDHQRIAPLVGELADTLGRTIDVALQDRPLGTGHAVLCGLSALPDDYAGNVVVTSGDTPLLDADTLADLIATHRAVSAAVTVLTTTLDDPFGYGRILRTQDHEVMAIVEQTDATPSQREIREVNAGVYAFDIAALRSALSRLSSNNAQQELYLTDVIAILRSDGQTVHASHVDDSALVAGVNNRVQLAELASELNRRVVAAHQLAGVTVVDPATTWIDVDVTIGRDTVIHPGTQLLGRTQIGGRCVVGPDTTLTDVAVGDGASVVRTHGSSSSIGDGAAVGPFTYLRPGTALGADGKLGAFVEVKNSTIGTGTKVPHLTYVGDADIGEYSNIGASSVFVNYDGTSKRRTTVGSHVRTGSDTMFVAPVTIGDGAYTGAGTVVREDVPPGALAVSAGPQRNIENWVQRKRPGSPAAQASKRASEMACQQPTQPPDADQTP

[18] = NIH-3T3 fibroblast cytotoxicity, dose response, cytotoxicity control, cell-based, fluorescence, Alamar Blue, secondary assay (AID 2327); type: functional;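 note: NIH-3T3 mouse fibroblasts cultured with fluconazole at 8 µg/mL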
[19] = target: Genome polyprotein (dengue virus type 2, UniProt P29990); experiment: Dengue-2 NS5 methyltransferase inhibitors, primary screen, biochemical, confirmation dose response (AID 588689); type: functional
Chain of Genome polyprotein (P29990 2492-3391 limits assumed): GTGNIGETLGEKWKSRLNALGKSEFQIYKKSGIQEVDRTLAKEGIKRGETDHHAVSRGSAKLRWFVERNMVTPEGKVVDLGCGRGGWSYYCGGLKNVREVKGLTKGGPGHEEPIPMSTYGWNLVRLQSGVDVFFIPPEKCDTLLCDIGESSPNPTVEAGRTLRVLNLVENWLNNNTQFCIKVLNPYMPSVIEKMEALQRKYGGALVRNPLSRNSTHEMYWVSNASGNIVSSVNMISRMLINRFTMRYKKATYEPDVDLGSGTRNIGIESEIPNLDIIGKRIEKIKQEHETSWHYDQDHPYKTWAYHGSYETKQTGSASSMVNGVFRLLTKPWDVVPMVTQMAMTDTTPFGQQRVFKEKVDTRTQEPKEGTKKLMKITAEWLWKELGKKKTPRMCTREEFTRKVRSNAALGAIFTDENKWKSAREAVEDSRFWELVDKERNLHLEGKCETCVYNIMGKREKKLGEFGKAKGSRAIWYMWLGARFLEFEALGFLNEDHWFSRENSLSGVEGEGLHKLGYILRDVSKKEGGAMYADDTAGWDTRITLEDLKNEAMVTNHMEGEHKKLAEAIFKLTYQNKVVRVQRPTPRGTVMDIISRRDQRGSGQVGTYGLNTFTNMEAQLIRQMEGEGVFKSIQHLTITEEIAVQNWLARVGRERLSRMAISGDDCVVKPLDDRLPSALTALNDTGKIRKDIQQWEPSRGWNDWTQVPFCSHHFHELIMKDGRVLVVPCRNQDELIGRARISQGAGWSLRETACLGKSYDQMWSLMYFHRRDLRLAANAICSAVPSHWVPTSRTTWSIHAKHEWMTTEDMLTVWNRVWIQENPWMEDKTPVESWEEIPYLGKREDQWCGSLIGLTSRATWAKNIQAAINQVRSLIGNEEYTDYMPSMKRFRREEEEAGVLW

[20] = target: T3, Histone-lysine N-methyltransferase NSD2 (Homo sapiens, UniProt O96028); type: biochemical
T3 sequence (O96028 whole entry): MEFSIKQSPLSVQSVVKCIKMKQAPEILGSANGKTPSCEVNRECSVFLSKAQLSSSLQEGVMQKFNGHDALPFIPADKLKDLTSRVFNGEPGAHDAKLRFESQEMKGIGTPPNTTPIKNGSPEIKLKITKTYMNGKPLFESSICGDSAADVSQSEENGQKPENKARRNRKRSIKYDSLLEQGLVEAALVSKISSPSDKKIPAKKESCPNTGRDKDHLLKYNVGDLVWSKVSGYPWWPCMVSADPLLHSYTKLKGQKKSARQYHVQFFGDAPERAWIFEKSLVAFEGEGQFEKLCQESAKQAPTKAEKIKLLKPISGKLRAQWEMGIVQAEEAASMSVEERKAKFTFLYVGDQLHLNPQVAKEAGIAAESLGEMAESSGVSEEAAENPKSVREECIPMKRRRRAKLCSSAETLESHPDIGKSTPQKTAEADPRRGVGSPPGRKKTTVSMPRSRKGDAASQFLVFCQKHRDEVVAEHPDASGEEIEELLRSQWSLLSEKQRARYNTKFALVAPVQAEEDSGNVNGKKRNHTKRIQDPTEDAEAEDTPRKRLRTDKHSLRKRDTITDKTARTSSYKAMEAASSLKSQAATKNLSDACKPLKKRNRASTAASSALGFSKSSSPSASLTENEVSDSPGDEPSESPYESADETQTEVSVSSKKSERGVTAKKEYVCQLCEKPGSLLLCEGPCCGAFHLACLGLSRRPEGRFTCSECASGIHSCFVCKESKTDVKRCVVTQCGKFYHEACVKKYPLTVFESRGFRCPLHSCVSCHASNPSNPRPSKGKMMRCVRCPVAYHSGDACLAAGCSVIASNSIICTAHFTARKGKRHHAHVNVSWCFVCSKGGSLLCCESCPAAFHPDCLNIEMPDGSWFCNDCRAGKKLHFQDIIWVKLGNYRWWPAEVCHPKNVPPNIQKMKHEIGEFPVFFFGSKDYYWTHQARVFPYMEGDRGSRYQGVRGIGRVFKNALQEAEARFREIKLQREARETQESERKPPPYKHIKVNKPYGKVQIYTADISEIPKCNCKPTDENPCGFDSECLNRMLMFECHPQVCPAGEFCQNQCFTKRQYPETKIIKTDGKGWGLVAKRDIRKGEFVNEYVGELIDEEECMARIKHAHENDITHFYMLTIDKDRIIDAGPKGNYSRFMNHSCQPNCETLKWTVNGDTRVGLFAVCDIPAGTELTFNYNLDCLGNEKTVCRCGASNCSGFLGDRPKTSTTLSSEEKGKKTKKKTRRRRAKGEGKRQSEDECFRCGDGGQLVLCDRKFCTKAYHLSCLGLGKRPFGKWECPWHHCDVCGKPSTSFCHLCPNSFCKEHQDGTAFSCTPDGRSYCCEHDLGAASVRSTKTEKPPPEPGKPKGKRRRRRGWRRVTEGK

[21] = target: E3 ubiquitin-protein ligase Mdm2 (Homo sapiens, UniProt Q00987); experiment: enhancers of MDM2-luciferase reporter signal, concentration-effect titration, project on inhibitors of MDM2 ubiquitin ligase, cellular assay, luminescent readout, 384-well plate format (AID 1394); type: functional;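 note: MDM2 E3 inhibitors raise luminescence so EC50 is for signal enhancement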
Chain of E3 ubiquitin-protein ligase Mdm2 (Q00987 whole entry): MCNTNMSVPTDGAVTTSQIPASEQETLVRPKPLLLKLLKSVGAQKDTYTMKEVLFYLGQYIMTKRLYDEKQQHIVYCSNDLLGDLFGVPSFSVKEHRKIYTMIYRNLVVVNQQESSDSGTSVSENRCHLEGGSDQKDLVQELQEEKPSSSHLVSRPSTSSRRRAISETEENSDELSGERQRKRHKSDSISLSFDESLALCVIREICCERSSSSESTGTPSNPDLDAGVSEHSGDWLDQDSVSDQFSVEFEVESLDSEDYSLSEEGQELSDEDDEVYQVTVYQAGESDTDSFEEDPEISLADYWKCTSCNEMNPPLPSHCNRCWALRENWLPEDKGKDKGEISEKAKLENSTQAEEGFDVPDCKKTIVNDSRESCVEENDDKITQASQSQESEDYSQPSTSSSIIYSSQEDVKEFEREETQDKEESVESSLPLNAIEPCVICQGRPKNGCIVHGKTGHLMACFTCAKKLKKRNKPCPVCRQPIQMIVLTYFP

[22] = target: T4, Mannose-6-phosphate isomerase (Homo sapiens, UniProt P34949); experiment: inhibitors of human PMI, primary screen, biochemical, fluorescence intensity, coupled assay (AID 1209)
T4 sequence (P34949 whole entry): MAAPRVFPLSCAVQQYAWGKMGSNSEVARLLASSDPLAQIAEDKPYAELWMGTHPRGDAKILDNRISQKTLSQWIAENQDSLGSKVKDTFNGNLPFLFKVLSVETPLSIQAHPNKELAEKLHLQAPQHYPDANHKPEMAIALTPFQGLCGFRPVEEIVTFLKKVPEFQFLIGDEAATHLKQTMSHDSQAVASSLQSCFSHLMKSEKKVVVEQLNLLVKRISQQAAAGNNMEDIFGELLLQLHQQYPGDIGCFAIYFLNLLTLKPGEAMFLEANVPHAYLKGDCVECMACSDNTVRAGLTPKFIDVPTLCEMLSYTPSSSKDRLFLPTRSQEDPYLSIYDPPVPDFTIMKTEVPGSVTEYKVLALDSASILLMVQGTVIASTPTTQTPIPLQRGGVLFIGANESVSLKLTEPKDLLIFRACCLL

[23] = target: Cytochrome P450 3A4 (Homo sapiens, UniProt P08684); conditions: Potency;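 note: confirmatory qHTS run detecting inhibitors and substrates of CYP3A4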
Chain of Cytochrome P450 3A4 (P08684 whole entry): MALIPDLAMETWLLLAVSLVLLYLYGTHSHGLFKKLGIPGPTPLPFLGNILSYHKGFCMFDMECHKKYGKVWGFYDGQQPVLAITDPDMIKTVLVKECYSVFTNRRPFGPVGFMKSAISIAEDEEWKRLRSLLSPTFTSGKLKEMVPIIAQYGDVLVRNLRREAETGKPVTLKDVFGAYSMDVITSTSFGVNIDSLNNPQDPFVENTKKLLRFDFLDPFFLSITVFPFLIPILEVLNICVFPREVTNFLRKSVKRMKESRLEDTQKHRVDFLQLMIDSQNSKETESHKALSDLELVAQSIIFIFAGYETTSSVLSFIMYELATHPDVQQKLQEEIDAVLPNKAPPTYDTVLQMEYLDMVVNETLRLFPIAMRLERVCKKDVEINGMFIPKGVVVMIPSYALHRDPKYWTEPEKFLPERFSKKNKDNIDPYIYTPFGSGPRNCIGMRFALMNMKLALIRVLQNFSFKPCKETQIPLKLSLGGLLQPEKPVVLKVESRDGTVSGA

[24] = target: Cytochrome P450 2C19 (Homo sapiens, UniProt P33261); experiment: qHTS Assay for Inhibitors and Substrates of Cytochrome P450 2C19. [Related pubchem assays: 410 ]; type: ADME; conditions: read-out: Potency
[25] = target: Glyceraldehyde-3-phosphate dehydrogenase (Homo sapiens, UniProt P04406)
Chain of Glyceraldehyde-3-phosphate dehydrogenase (P04406 whole entry): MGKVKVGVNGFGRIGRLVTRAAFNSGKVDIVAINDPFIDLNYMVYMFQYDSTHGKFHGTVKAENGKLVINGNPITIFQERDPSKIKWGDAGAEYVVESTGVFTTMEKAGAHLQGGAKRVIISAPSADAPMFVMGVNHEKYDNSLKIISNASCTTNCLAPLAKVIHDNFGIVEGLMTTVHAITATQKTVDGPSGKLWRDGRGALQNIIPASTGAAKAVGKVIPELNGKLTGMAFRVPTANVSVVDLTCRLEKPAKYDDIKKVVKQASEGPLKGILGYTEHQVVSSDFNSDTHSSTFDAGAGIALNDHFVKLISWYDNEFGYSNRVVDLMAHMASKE

[26] = target: T5, Alkaline phosphatase, tissue-nonspecific isozyme (Homo sapiens, UniProt P05186); experiment: human TNAP enzyme inhibitors, SAR follow-up, biochemical, luminescent, dose response (AID 1056)
T5 sequence (P05186 whole entry): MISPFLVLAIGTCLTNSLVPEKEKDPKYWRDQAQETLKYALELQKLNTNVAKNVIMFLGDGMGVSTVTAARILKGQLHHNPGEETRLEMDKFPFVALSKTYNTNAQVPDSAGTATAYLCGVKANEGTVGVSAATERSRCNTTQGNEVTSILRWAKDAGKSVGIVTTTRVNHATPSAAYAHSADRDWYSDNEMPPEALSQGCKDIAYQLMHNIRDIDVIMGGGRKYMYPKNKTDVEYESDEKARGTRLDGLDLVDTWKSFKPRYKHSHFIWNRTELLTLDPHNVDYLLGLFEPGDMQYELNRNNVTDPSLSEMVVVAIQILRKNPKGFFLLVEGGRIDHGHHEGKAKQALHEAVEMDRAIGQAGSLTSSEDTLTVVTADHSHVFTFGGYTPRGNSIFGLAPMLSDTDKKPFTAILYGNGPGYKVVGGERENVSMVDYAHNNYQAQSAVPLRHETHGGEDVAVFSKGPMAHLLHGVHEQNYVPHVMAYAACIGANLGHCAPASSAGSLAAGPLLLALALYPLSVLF

[27] = target: Mitogen-activated protein kinase 10 (Homo sapiens, UniProt P53779); experiment: Dose response biochemical screening assay for inhibitors of c-Jun N-Terminal Kinase 3 (JNK3). [Related pubchem assays: 746 ]

Chain of Ephrin type-A receptor 4 (Q03137 whole entry): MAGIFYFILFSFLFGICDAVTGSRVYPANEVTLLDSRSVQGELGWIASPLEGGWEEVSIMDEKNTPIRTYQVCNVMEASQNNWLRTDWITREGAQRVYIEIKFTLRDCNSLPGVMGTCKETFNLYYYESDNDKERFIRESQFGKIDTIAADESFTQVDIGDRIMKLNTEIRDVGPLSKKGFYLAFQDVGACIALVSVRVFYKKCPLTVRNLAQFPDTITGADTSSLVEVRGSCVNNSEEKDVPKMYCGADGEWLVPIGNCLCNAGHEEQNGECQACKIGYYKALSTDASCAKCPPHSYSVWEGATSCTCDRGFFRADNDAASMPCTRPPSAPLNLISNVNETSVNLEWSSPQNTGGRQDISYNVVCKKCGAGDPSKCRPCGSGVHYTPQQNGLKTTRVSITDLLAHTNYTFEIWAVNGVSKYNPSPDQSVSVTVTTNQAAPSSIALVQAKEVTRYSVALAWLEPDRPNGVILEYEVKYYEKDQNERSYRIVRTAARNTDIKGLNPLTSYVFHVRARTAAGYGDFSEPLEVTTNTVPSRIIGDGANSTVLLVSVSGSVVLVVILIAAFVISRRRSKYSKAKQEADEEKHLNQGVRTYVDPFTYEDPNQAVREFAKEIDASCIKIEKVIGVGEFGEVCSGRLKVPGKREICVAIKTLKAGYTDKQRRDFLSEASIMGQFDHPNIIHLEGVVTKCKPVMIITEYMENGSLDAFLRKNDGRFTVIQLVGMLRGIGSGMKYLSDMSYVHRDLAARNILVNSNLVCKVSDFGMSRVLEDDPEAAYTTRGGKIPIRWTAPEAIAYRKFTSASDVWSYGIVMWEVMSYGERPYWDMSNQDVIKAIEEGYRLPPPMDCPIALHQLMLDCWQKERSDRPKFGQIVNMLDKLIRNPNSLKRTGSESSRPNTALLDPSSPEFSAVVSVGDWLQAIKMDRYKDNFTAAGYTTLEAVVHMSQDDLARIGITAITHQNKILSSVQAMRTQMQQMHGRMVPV

Structure (SMILES): COc1ccc2sc3ccccc3c(=O)c2c1OC
- IC50 [1]: > 100 µM (not active)
- AC50 [2]: 28.2 µM (inconclusive)

Structure (SMILES): COc1ccc(C(=O)/C=C/c2ccc(OCc3ccccc3)cc2)cc1CSCC(=O)O
- IC50 [3]: 42.8 µM (active)
- AC50 [4]: 5.79 µM (active)

Structure (SMILES): O=C(Nc1ccccc1)Nc1cccc2nsnc12
- EC50 [5]: > 67.5 µM (inactive)
- EC50 [6]: < 0.1 µM (inconclusive)
- EC50 [7]: 1.37 µM (active)
- EC50 [8]: 0.739 µM (active)
- EC50 [9]: > 67.5 µM (inactive)
- EC50 [10]: > 12 µM (not active)
- EC50 [11]: 0.19 µM (active)
- EC50 [12]: 0.452 µM (active)

Structure (SMILES): Cc1cccc(N2NC(=O)/C(=C/c3ccc(-c4ccc(Cl)c(C(=O)O)c4)o3)C2=O)c1
- IC50 [13]: 3.84 µM (active)
- AC50 [14]: > 100 µM (inactive)
- EC50 [15]: > 38 µM (not active)
- IC50 [16]: 22.3 µM (active)
- IC50 [17]: 122 µM (active)
- EC50 [18]: > 150 µM (inactive)
- IC50 [19]: 22.5 µM (active)
- AC50 [20]: > 20 µM (inactive)

Structure (SMILES): Cn1c(=O)[nH]c(=O)c2c1nc(Br)n2CCCc1ccccc1
- EC50 [21]: 46.5 µM (not active)

Structure (SMILES): Cc1cccc(NC(=O)C2CC(=O)n3cnnc3S2)c1 (stereo not given)
- IC50 [22]: > 50 µM (not active)

Structure (SMILES): O=C1/C(=C\c2ccc(-c3ccccc3Cl)o2)SC(=S)N1CC1CCCO1 (stereo not given)
- IC50 [1]: 0.4 µM (active)

Structure (SMILES): O=C(Nc1ccc(Cl)cc1)c1ccc(-n2cccn2)c([N+](=O)[O-])c1
- EC50 [21]: 8.84 µM (not active)

Structure (SMILES): CC1CCN(C(=O)CSc2nc3ccccc3s2)CC1
- EC50 [6]: < 0.1 µM (inconclusive)
- EC50 [7]: 20.3 µM (active)
- EC50 [8]: 0.482 µM (active)
- EC50 [10]: 1.69 µM (active)
- EC50 [11]: 0.185 µM (active)
- EC50 [12]: 2.07 µM (active)

Structure (SMILES): COC(=O)NC(c1cccs1)C(C(C)=O)C(=O)OC (stereo not given)
- AC50 [23]: 3.98 µM (inconclusive)
- AC50 [24]: 3.98 µM (inconclusive)

Structure (SMILES): c1ccc(-c2[nH]nc3ccccc23)cc1
- IC50 [25]: > 10 µM (inconclusive)
- IC50 [26]: 3.53 µM (active)
- IC50 [27]: 2.34 µM (active)
